Legend:
Experiment in all cases: selective drug sensitivity score (sDSS, relative to normal bone marrow) (sDSS (score)); higher = more potent and effective on the cell line relative to normal bone marrow cells
Conditions in all cases: 72 h
NALL-1 = tested on: NALL-1
TANOUE = tested on: TANOUE
MHH-CALL-3 = tested on: MHH-CALL-3
MOLT-16 = tested on: MOLT-16
REH = tested on: REH
P12-ICHIKAWA = tested on: P12-ICHIKAWA
DND-41 = tested on: DND-41
JURKAT = tested on: JURKAT
MOLT-4 = tested on: MOLT-4
KASUMI-10 = tested on: KASUMI-10
COG-LL-319h = tested on: COG-LL-319h
MOLT-14 = tested on: MOLT-14
PF-382 = tested on: PF-382
RCH-ACV = tested on: RCH-ACV
LC4-1 = tested on: LC4-1
697 = tested on: 697
COG-LL-332h = tested on: COG-LL-332h
CCRF-HSB2 = tested on: CCRF-HSB2
COG-LL-402h = tested on: COG-LL-402h
HPB-ALL = tested on: HPB-ALL
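Further: ALL cell lines in 384-well plates, five doses spanning 10,000-fold, each plate scaled between vehicle and 100 µmol/L benzalkonium chloride controls, sDSS an adapted area-under-curve metric.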

SMILES | selective drug sensitivity score (NALL-1) | selective drug sensitivity score (TANOUE) | selective drug sensitivity score (MHH-CALL-3) | selective drug sensitivity score (MOLT-16) | selective drug sensitivity score (REH) | selective drug sensitivity score (P12-ICHIKAWA) | selective drug sensitivity score (DND-41) | selective drug sensitivity score (JURKAT) | selective drug sensitivity score (MOLT-4) | selective drug sensitivity score (KASUMI-10) | selective drug sensitivity score (COG-LL-319h) | selective drug sensitivity score (MOLT-14) | selective drug sensitivity score (PF-382) | selective drug sensitivity score (RCH-ACV) | selective drug sensitivity score (LC4-1) | selective drug sensitivity score 697 | selective drug sensitivity score (COG-LL-332h) | selective drug sensitivity score (CCRF-HSB2) | selective drug sensitivity score (COG-LL-402h) | selective drug sensitivity score (HPB-ALL)
C[C@@H]1CN(CC(=O)Nc2ccc3c(c2)Cc2cccc(-c4cc(=O)cc(N5CCOCC5)o4)c2S3)C[C@H](C)O1 (top concentration 25000 nM) | -2.18 | -2.18 | -2.18 | 0.32 | 6.12 | -0.58 | 4.02 | 0.92 | -0.08 | -2.18 | 6.72 | 0.32 | 0.82 | 8.12 | 4.12 | 0.42 | 2.02 | 0.42 | 1.92 | 2.22
COc1ccc2[nH]cc(/C=C3\C(=O)Nc4ccc(NC(=O)CCN5CCCCC5)cc43)c2c1 (top concentration 50000 nM) | -2.52 | -2.22 | -5.32 | -2.32 | -1.62 | -0.52 | 1.38 | -3.22 | -1.12 | 1.78 | -4.42 | 0.98 | 1.18 | 1.08 | -0.42 | -0.02 | 4.68 | 6.68 | 1.18 | -3.32
Cc1nn(C)c(COc2ccc(N3CCN(S(=O)(=O)N(C)C)CC3)cc2)c1-c1cccc2c(CCCOc3cccc4ccccc34)c(C(=O)O)n(CCN3CCOCC3)c12 (top concentration 50000 nM) | 5.46 | 2.56 | 2.56 | 12.6 | 8.46 | 6.76 | 4.56 | 5.86 | 6.56 | 3.86 | 5.26 | 6.96 | 3.16 | 4.66 | 6.56 | 4.36 | 4.16 | 5.36 | 4.26 | 2.16
C[C@H](Nc1ncnc2[nH]cnc12)c1cc2ccc(F)cc2nc1-c1ccccn1 [AMG319] (top concentration 1000 nM) | -1.42 | -0.12 | -0.42 | -1.42 | -1.02 | -1.42 | -0.92 | -1.42 | -1.42 | -1.42 | 10.1 | -1.42 | -1.42 | 19.3 | -1.42 | 0.18 | -1.42 | -1.32 | 5.88 | -1.42
C=CCn1c(=O)c2cnc(Nc3ccc(N4CCN(C)CC4)cc3)nc2n1-c1cccc(C(C)(C)O)n1 [AZD1775] (top concentration 10000 nM) | 4.84 | -1.66 | 5.64 | 17.5 | 13.5 | 13.6 | 11.5 | 11.3 | 14.6 | 7.84 | 18.8 | 14.3 | 12.4 | 17.2 | 13.7 | 15.4 | 11 | 13.6 | 10.2 | 9.44
NC(=O)Nc1cc(-c2cccc(F)c2)sc1C(=O)N[C@H]1CCCNC1 [AZD7762] (top concentration 1000 nM) | -2.1 | -5 | 1.9 | -1.5 | -1.1 | -0.5 | 2.3 | -0.7 | -1.3 | 12.9 | 2.8 | 0.6 | -0.5 | 7.9 | -0.5 | 2.6 | -0.8 | 8.2 | 3.3 | -1.5
Cc1cc([C@@H](C)Nc2ccccc2C(=O)O)c2nc(N3CCOCC3)cc(=O)n2c1 [AZD-6482] (top concentration 2500 nM) | 7.42 | 0.02 | 0.42 | -0.28 | 7.82 | 0.42 | 2.32 | -0.28 | 1.52 | -0.28 | 13.6 | -0.28 | 2.62 | 17.6 | 3.42 | 3.12 | 1.32 | 2.12 | 6.52 | 2.92
CN(C)Cc1c(C(=O)NCCOc2ccc(C(=O)NO)cc2)oc2ccccc12 [Abexinostat] (top concentration 10000 nM) | 1.06 | -7.54 | 15.4 | 5.66 | 2.26 | 4.66 | 4.46 | 1.66 | 3.76 | 6.06 | 8.36 | 7.36 | 2.86 | 10.6 | 4.36 | 6.96 | 0.36 | 6.36 | 13.4 | 6.76
S=C(NCc1ccc2c(c1)OCO2)N1CCN(c2ncnc3c2oc2ccccc23)CC1 [Amuvatinib] (top concentration 10000 nM) | 2.16 | 6.16 | 5.06 | 8.36 | 5.56 | 7.46 | 4.16 | 11.1 | 4.66 | -1.44 | 5.96 | 3.56 | 5.06 | 9.26 | 4.56 | 7.86 | 2.96 | 3.96 | 2.36 | 2.66
